# Article PMC12287140, “Branched-chain amino acid catabolism initiates volatile synthesis in Gentiana triflora” (Planta, 2025)
# Assays:
# GeBCAT2 = tested on: T1, GeBCAT2; assay: deamination assay, LC-TOF-MS of PFBHA-derivatized keto acid; format: biochemical, Gentiana triflora; details: 120 mM alpha-ketoglutarate, 0.16 mM PLP, 4 mM DTT, 0.1 M Tris-HCl pH 8.0, 33 °C
# T1 construct: open reading frame (411 aa, predicted plastid transit peptide) in pEU-FLAG-GST-GW; FLAG-GST tag, no cleavage told; wheat cell-free synthesis, GST-purified
# From the text: deamination assay, LC-TOF-MS of PFBHA-derivatized keto acid on GeBCAT2 | Km and Vmax values of recombinant GeBCAT1 and GeBCAT2 are shown for different substrates
# GeBCAT1 = tested on: T2, GeBCAT1; assay: as above; format: biochemical, Gentiana triflora; details: 120 mM alpha-ketoglutarate, 0.16 mM PLP, 4 mM DTT, 0.1 M Tris-HCl pH 8.0, 33 °C
# T2 construct: open reading frame (390 aa, predicted mitochondrial transit peptide) in pEU-FLAG-GST-GW; FLAG-GST tag, no cleavage told; wheat cell-free synthesis, GST-purified
# From the text: deamination assay, LC-TOF-MS of PFBHA-derivatized keto acid on GeBCAT1 | Km and Vmax values of recombinant GeBCAT1 and GeBCAT2 are shown for different substrates
SMILES,Km (GeBCAT2) [µM],Km (GeBCAT1) [µM]
CC[C@H](C)[C@H](N)C(=O)O [Ile],310 ± 15,88 ± 40
CC(C)C[C@H](N)C(=O)O [Leu],650 ± 29,780 ± 280
CC(C)[C@H](N)C(=O)O [Val],4570 ± 320,79 ± 15
